Experimental data published in US20200108043A1, “COMPOUNDS AND COMPOSITIONS FOR EXTENDING LIFESPAN OF A SUBJECT” (YALE UNIVERSITY, priority 2017, published 2020).

Experiments:
[1] = system: S. cerevisiae; assay type: cell-based
Method: To obtain the single-cell level data for the age and generation-durations of replicatively aging mother cells, data reported in Liu, P., et al., Cell Rep. 634-644 (2015) was re-analyzed. The data was collected in the same media condition (CSM 2% glucose) as reported elsewhere herein. Cells were grown for ˜24 hours in CSM 2% glucose prior to loading to the microfluidic device. Once cells were loaded, media was swapped to provide CSM 2% glucose control media (untreated), media containing DMSO as a vehicle control (American Bio AB00435), media containing 10 μM terreic acid (Sigma SML0480), media containing 10 μM mycophenolic acid (Sigma M5255), or media containing another compound at the indicated concentration. An automated microscope was used to track […], and replicative lifespan was later determined by counting the number of daughters produced before death. In the case of compound validation, only newborn cells were included in the lifespan experiment. To compare the replicative lifespan of labeled and unlabeled cells, only cells that were present within the traps at the start of the experiment were included. For these experiments, cells were loaded to the microfluidic device at an increased rate of 100 μL/min to increase the number of trapped mother cells. Green fluorescent images were also taken at the start of the experiment to confirm that the cells were visibly labeled.
Differences in lifespan characteristics were assessed through Log-Rank test using MATLAB with a cut-off value of P=0.05. The script for Log-Rank test was downloaded from MATLAB. Differences in proteasome activity were assessed using the unpaired, two-tailed, parametric t-test function of the GraphPad Prism software.
The Longevity Placement Test (LPT) was designed as a mutually exclusive, collectively exhaustive test to determine the relationship of a longevity intervention to a known genetic regulator of lifespan. For a given intervention that extends lifespan, any of three possible relationships may exist relative to a known genetic regulator of lifespan. (1) The intervention may act to extend lifespan independently from the known regulator. (2) The […] may act downstream from the known regulator, converging on a single component of the known regulator's lifespan pathway. (3) The intervention may act upstream from or upon the known regulator, ultimately modulating lifespan through the genetic regulator.
In Step 1 of the LPT, the longevity intervention is applied to a strain in which a genetic regulator of lifespan is deleted. In the event that lifespan extension from the longevity intervention is observed in this background, only possibilities (1) and (2) above remain valid (FIG. 7B). If no lifespan extension is observed, then possibilities (2) and (3) remain valid. Possibility (2) cannot be ruled out in this step, since non-saturating action by the genetic regulator could leave room for lifespan extension by the longevity intervention, while saturating action would preclude it.
In Step 2 of the LPT, an epistatic agent, which prevents lifespan extension from the longevity agent, is applied to a strain in which some upstream member of the genetic regulator's lifespan pathway has been modified to extend lifespan. This step differentiates possibility (2) from the remaining possibility after Step 1. In the event that lifespan extension from the genetic regulator's pathway is suppressed by the epistatic agent, this determines that possibility (2) is correct. In the event that no epistasis is observed, the remaining possibility, (1) or (3), is correct (FIG. 7C).

[2] = system: Saccharomyces cerevisiae; test: High-Life (High throughput replicative Lifespan measurement) flow cytometry assay in MEP yeast; assay type: cell-based; settings: fresh samples from secondary source, 24 hours of culture

## COc1c(C)c2c(c(O)c1C/C=C(\C)CCC(=O)O)C(=O)OC2 [mycophenolic acid]
[1]; 10 μM MPA only first 24 hours or only after first 24 hours, compared to whole-lifespan treatment
  lifespan extension with treatment for only part of the lifespan: reduced lifespan extension compared to whole-lifespan treatment
[1]; 10 μM MPA, 6-hour pulse between 24th and 30th hour
  lifespan extension with pulse treatment: little to no lifespan extension
[1]; 10 μM compound, wild-type haploid cells, Replicator device
  extension of mean RLS: 20%
[1]; absence of SIR2, ΔSIR2ΔFOB1 background
  lifespan in ΔSIR2ΔFOB1 background (LPT step 1): able to extend the lifespan
[1]; long-lived ΔHXK2 strain
  lifespan in ΔHXK2 strain (LPT step 1): further extended lifespan
[1]; long-lived ΔTOR1 strain
  lifespan in ΔTOR1 strain (LPT step 1): further extended lifespan
[1]; wild-type haploid yeast BY4741, MPA without supplemental guanine vs control and guanine supplemented
  replicative lifespan (RLS) with and without supplemental guanine: extended longevity
[1]; ΔPRE9 strain
  RLS in ΔPRE9 strain: extends RLS
[1]; ΔUBR2 strain
  RLS in ΔUBR2 strain (LPT step 1): moderately, but not significantly, extended RLS
[2]
  dose-response: cell survival in High-Life: clear concentration-dependent effects
